Among the data in patent US7569601B2, “Cycloalkylidene compounds as modulators of estrogen receptor” (SmithKline Beecham Corporation, priority 2003, dated 2009) are melting point values, retold here.

SMILES strings stand for the structures.

Broadly, the melting point is the temperature, or range, at which the solid turns liquid. For `CC1(C)CC(=C(c2ccc(O)cc2)c2ccc(/C=C/C(=O)O)cc2)CC(C)(C)C1` [Example 6, (2E)-3-{4-[(4-Hydroxyphenyl)(3,3,5,5-tetramethylcyclohexylidene)methyl]phenyl}-2-propenoic acid], the melting point is 219 to 220 °C. Turning to `CC(=O)Nc1ccc(C(=C2CC(C)(C)CC(C)(C)C2)c2ccc(O)cc2)cc1` [Example 21, N-{4-[(4-hydroxyphenyl)(3,3,5,5-tetramethylcyclohexylidene)methyl]phenyl}acetamide], the melting point fell in the range of 118 to 121 °C.

The compound `CC1(C)CC(=C(c2ccc(O)cc2)c2ccc(OCCOCCO)cc2)CC(C)(C)C1` [Example 23, 4-[[4-({2-[(2-Hydroxyethyl)oxy]ethyl}oxy)phenyl](3,3,5,5-tetramethylcyclohexylidene)methyl]phenol] displayed a melting point of 122 to 124 °C. Under `CC1(C)CC(=C(c2ccc(O)cc2)c2ccc(S(C)(=O)=O)cc2)CC(C)(C)C1` [Example 30, 4-[[4-(Methylsulfonyl)phenyl](3,3,5,5 tetramethylcyclohexylidene)methyl]phenol] stands 149 to 150 °C; under `CC1(C)CC(=C(c2ccc(O)cc2)c2ccc(C(N)=O)cc2)CC(C)(C)C1` [Example 31, 4-[(4-hydroxyphenyl)(3,3,5,5-tetramethylcyclohexylidene)methyl]benzamide], 209 to 210 °C; under `CC1(C)CC(=C(c2ccc(O)cc2)c2ccc(OCCO)cc2)CC(C)(C)C1` [Example 32, 4-[{4-[(2-Hydroxyethyl)oxy]phenyl}(3,3,5,5-tetramethylcyclohexylidene)methyl]phenol], 154 to 155 °C. Under `O=C(O)/C=C/c1ccc(C(=C2CCCCCC2)c2ccc(O)c(Cl)c2)cc1` [Example 42, (2E)-3-{4-[(3-Chloro-4-hydroxyphenyl)(cycloheptylidene)methyl]phenyl}-2-propenoic acid] stands 155 to 156 °C; under `CC1(C)CC(=C(c2ccc(/C=C/C(=O)O)cc2)c2ccc(O)c(Cl)c2)CC(C)(C)C1` [Example 43, (2E)-3-{4-[(3-Chloro-4-hydroxyphenyl)(3,3,5,5-tetramethylcyclohexylidene)methyl]phenyl}-2-propenoic acid], 111 to 114 °C; under `CC1(C)CC(=C(c2ccc(/C=C/C(=O)O)cc2)c2ccc(O)c(Cl)c2)CC(C)(C)O1` [Example 44, (2E)-3-{4-[(3-Chloro-4-hydroxyphenyl)(2,2,6,6-tetramethyltetrahydro-4H-pyran-4-ylidene)methyl]phenyl}-2-propenoic acid], 118 to 121 °C. In turn, `O=C(O)/C=C/c1ccc(C(=C2CCCCCC2)c2ccc(O)c(F)c2)cc1` [Example 45, (2E)-3-{4-[(3-fluoro-4-hydroxyphenyl)(cycloheptylidene)methyl]phenyl}-2-propenoic acid] returned a melting point of 164 to 165 °C. Under `CC1(C)CC(=C(c2ccc(/C=C/C(=O)O)cc2)c2ccc(O)c(F)c2)CC(C)(C)O1` [Example 46, (2E)-3-{4-[(3-fluoro-4-hydroxyphenyl)(2,2,6,6-tetramethyltetrahydro-4H-pyran-4-ylidene)methyl]phenyl}-2-propenoic acid] stands 125 to 128 °C. Under `CC1(C)CC(=C(c2ccc(/C=C/C(=O)O)cc2)c2ccc(O)c(F)c2)CC(C)(C)C1` [Example 47, (2E)-3-{4-[(3-fluoro-4-hydroxyphenyl)(3,3,5,5-tetramethylcyclohexylidene)methyl]phenyl}-2-propenoic acid] stands 193 to 195 °C; under `CC1(C)CC(=C(c2ccc(O)cc2)c2ccc(C#CCO)cc2)CC(C)(C)C1` [Example 48, 4-[[4-(3-hydroxy-1-propyn-1-yl)phenyl](3,3,5,5-tetramethylcyclohexylidene)methyl]phenol], 141 to 142 °C. `C#Cc1ccc(C(=C2CC(C)(C)CC(C)(C)C2)c2ccc(O)cc2)cc1` [Example 49, 4-[(4-Ethynylphenyl)(3,3,5,5-tetramethylcyclohexylidene)methyl]phenol] returned a melting point of 138 to 139 °C. For `CC1(C)CC(=C(c2ccc(O)cc2)c2ccc(CC(=O)O)cc2)CC(C)(C)C1` [Example 51, {4-[(4-Hydroxyphenyl)(3,3,5,5-tetramethylcyclohexylidene)methyl]phenyl}acetic acid] the value was 220 to 221 °C. For `CC1(C)CC(=C(c2ccc(O)cc2)c2ccc(CCC(=O)O)cc2)CC(C)(C)C1` [Example 61, 3-{4-[(4-Hydroxyphenyl)(3,3,5,5-tetramethylcyclohexylidene)methyl]phenyl}propanoic acid] the value was 243 to 244 °C; for `O=C(O)COc1ccc(C(=C2CCCCCC2)c2ccc(O)cc2)cc1` [Example 68, ({4-[Cycloheptylidene(4-hydroxyphenyl)methyl]phenyl}oxy)acetic acid], 170 to 171 °C. Under `N#Cc1ccc(C(=C2CCCCCC2)c2ccc(O)cc2)cc1` [Example 77, 4-[cycloheptylidene(4-hydroxyphenyl)methyl]benzonitrile] stands 110 to 111 °C; under `CC1(C)CC(=C(c2ccc(O)cc2)c2ccc(OCC(=O)O)cc2)CC(C)(C)C1` [Example 83, ({4-[(4-Hydroxyphenyl)(3,3,5,5-tetramethylcyclohexylidene)methyl]phenyl}oxy)acetic acid], 163 to 164 °C; under `CC1(C)CC(=C(c2ccc(O)cc2)c2ccc(OCCCC(=O)O)cc2)CC(C)(C)C1` [Example 84, 4-({4-[(4-hydroxyphenyl)(3,3,5,5-tetramethylcyclohexylidene)methyl]phenyl}oxy)butanoic acid], 203 to 204 °C. Take `CC1(C)CC(=C(c2ccc(O)cc2)c2ccc(CO)cc2)CC(C)(C)C1` [Example 91, 4-[[4-(Hydroxymethyl)phenyl](3,3,5,5-tetramethylcyclohexylidene)methyl]phenol]: the melting point is 134 to 135 °C. For `CC1(C)CC(=C(c2ccc(O)cc2)c2ccc(CCO)cc2)CC(C)(C)C1` [Example 92, 4-[[4-(2-Hydroxyethyl)phenyl](3,3,5,5-tetramethylcyclohexylidene)methyl]phenol] the value was 159 to 160 °C; for `CC1(C)CC(=C(c2ccc(O)cc2)c2ccc(CCCO)cc2)CC(C)(C)C1` [Example 93, 4-[[4-(3-Hydroxypropyl)phenyl](3,3,5,5-tetramethylcyclohexylidene)methyl]phenol], 160 to 161 °C; for `CC1(C)CC(=C(c2ccc(O)cc2)c2ccc(-c3ccoc3)cc2)CC(C)(C)C1` [Example 94, 4-[[4-(3-furanyl)phenyl](3,3,5,5-tetramethylcyclohexylidene)methyl]phenol], 128 to 129 °C. Under `OCCCC#Cc1ccc(C(=C2CCCCCC2)c2ccc(O)cc2)cc1` [Example 100, 4-{Cycloheptylidene[4-(5-hydroxy-1-pentyn-1-yl)phenyl]methyl}phenol] stands 125 to 126 °C. For `CC(C)(O)C#Cc1ccc(C(=C2CC(C)(C)CC(C)(C)C2)c2ccc(O)cc2)cc1` [Example 101, 4-[[4-(3-hydroxy-3-methyl-1-butyn-1-yl)phenyl](3,3,5,5-tetramethylcyclohexylidene)methyl]phenol] the value was 186 to 187 °C; for `CC1(C)CC(=C(c2ccc(O)cc2)c2ccc(C#CCCO)cc2)CC(C)(C)C1` [Example 102, 4-[[4-(4-hydroxy-1-butyn-1-yl)phenyl](3,3,5,5-tetramethylcyclohexylidene)methyl]phenol], 183 to 184 °C. In turn, `CC1(C)CC(=C(c2ccc(O)cc2)c2ccc(C#CCCC(=O)O)cc2)CC(C)(C)C1` [Example 103, 5-{4-[(4-Hydroxyphenyl)(3,3,5,5-tetramethylcyclohexylidene)methyl]phenyl}-4-pentynoic acid] had a melting point of 233 to 234 °C. As for `CC(=O)c1ccc(C(=C2CC(C)(C)CC(C)(C)C2)c2ccc(O)cc2)cc1` [Example 104, 1-{4-[(4-Hydroxyphenyl)(3,3,5,5-tetramethylcyclohexylidene)methyl]phenyl}ethanone], the melting point lay in the range of 195 to 196 °C. Under `CC1(C)CC(=C(c2ccc(O)cc2)c2ccc(-c3ccc(CO)cc3)cc2)CC(C)(C)C1` [Example 105, 4-[[4′-(Hydroxymethyl)-4-biphenylyl](3,3,5,5-tetramethylcyclohexylidene)methyl]phenol] stands 222 to 223 °C. The compound `CC1(C)CC(=C(c2ccc(O)cc2)c2ccc(-c3cccc(CO)c3)cc2)CC(C)(C)C1` [Example 106, 4-[[3′-(Hydroxymethyl)-4-biphenylyl](3,3,5,5-tetramethylcyclohexylidene)methyl]phenol] yielded a melting point of 197 to 198 °C. Under `CC1(C)CC(=C(c2ccc(O)cc2)c2ccc(-c3ccccc3C(=O)O)cc2)CC(C)(C)C1` [Example 107, 4′-[(4-Hydroxyphenyl)(3,3,5,5-tetramethylcyclohexylidene)methyl]-2-biphenylcarboxylic acid] stands 230 to 231 °C.

As to `CC1(C)CC(=C(c2ccc(O)cc2)c2ccc(-c3ccccc3CO)cc2)CC(C)(C)C1` [Example 108, 4-[[2′-(Hydroxymethyl)-4-biphenylyl](3,3,5,5-tetramethylcyclohexylidene)methyl]phenol], the melting point lay in the range of 171 to 172 °C.
